Results as given in patent US10898469B2, “Imidazolylamide derivative” (Sumitomo Dainippon Pharma Co., Ltd., priority 2016, dated 2021).
Read-outs that look alike come from different tables or passages of the source.

Experiments:
Type in all cases: cell-based, human
HCT-116 cells [1] = experiment: Inhibition test for sphere-forming ability of cancer cells (Test Example 1), HCT-116; settings: for IC50 / viability at 1 µM / (100%-inhibition rate of cell proliferation) at 1 μmol/L, HCT-116: HCT-116 cells; for IC50: concentration for 50% inhibition of cell proliferation, read-out: IC50 (μmol/L) HCT-116 (Sphere IC50 value); for inhibitory effect on the sphere-forming ability of cancer cells: Test Example 1, summary in words, cell line not given (HCT-116, HT-29, FaDu tested); for viability at 1 µM: read-out: (100%-inhibition rate of cell proliferation) at 1 μmol/L; for viability at 1 µM / (100%-inhibition rate of cell proliferation) at 1 μmol/L, HCT-116: 1 μmol/L, value with %
In short: (§1)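 Cells were seeded at 350-800 cells/well in ultra-low-attachment plates in serum-free DMEM/F12 with 2% B27, 20 ng/mL EGF, 10 ng/mL bFGF and 5 μg/mL insulin. Compounds were added at 0.1% final DMSO for 4 days. Viable cells were read by CellTiter-Glo luminescence to give Sphere IC50 (μmol/L).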

HT-29 cells = experiment: Inhibition test for sphere-forming ability of cancer cells (Test Example 1), HT-29; settings: for IC50 / viability at 1 µM: Homo sapiens; for IC50: concentration for 50% inhibition of cell proliferation, read-out: IC50 (μmol/L) HT-29 (Sphere IC50 value); for viability at 1 µM: read-out: (100%-inhibition rate of cell proliferation) at 1 μmol/L, 1 μmol/L, value with %; for (100%-inhibition rate of cell proliferation) at 1 μmol/L, HT-29: value with %
In short: as §1

FaDu cells = experiment: Inhibition test for sphere-forming ability of cancer cells (Test Example 1), FaDu; settings: for IC50: concentration for 50% inhibition of cell proliferation, read-out: IC50 (μmol/L) FaDu (Sphere IC50 value); for viability at 1 µM: read-out: (100%-inhibition rate of cell proliferation) at 1 μmol/L, 1 μmol/L, value with %; for (100%-inhibition rate of cell proliferation) at 1 μmol/L, FaDu: value with %
In short: as §1

HCT-116 cells [2] = experiment: Inhibition test for sphere-forming ability of cancer cells in the presence of BSA (Test Example 2), HCT-116; settings: for IC50: HCT-116 cells, in the presence of 5% BSA, cultured 4 days; for inhibitory effect on the sphere-forming ability of cancer cells: Test Example 2, in the presence of 5% BSA, summary in words, cell line not given (HCT-116, HT-29, FaDu tested)
Procedure: Human colorectal cancer-derived HCT-116 cells, human colon-adenocarcinoma-derived HT-29 cells, and human pharyngeal cancer-derived FaDu cells were available from American Type Culture Collection (ATCC). HCT-116 cells and HT-29 cells were cultured at 37° C. under 5% CO2 using the McCoy's 5a medium containing 10% fetal bovine serum (FBS) and 1% penicillin/streptomycin, and FaDu cells were cultured at 37° C. under 5% CO2 using the MEM medium containing 10% FBS, 1% non-essential amino acid, 1% sodium pyruvate, 5% bovine serum albumin (BSA), and 1% penicillin/streptomycin. HCT-116 cells, HT-29 cells, and FaDu cells were seeded in a 384 Well Black Clear Bottom Ultra-Low Attachment Microplate (Corning Cat. No. 3827) in an amount of 350-800 cells/well using the DMEM/F12 medium containing 2% B27 supplement (GIBCO), 20 ng/mL epidermal growth factor (EGF) (peprotech), 10 ng/mL basic fibroblast growth factor (bFGF) (peprotech), 5 μg/mL insulin (Sigma), 5% bovine serum albumin (BSA), and 1% penicillin/streptomycin. Each test compound was added into each well to adjust the final concentration of DMSO to 0.1%, and the cells were cultured for 4 days. The number of viable cells in each well was then measured with CellTiter-Glo® Luminescent Cell Viability Assay (Promega) to calculate the concentration of each test compound for 50% inhibition of cell proliferation (Sphere IC50 value; μmol/L).
The experiment of Test Example 2 was performed for each compound of each Example.
The concentration of each test compound for 50% inhibition of cell proliferation (Sphere IC50 value; μmol/L) is shown in the following Table.

In the case of `CS(=O)(=O)Nc1ccc(/C=C/C(=O)Nc2cn(Cc3cccc(Cl)c3)cn2)cc1` [Example 4, (E)-N-(1-(3-Chlorobenzyl)-1H-imidazol-4-yl)-3-(4-(methylsulfonamide)phenyl)acrylamide], the IC50 (HCT-116 cells [1]; Homo sapiens) is reported as 5.79 µmol/L, the IC50 (HT-29 cells) is reported as 0.69 µmol/L and the IC50 (FaDu cells; Homo sapiens) is reported as 0.67 µmol/L. For the same compound, the IC50 (HCT-116 cells [2]; Homo sapiens, HCT-116, 96 h) was 6400 nM.

`CC(=O)Nc1ccc(/C=C/C(=O)Nc2cn(Cc3cccc(Cl)c3)cn2)cc1` [Example 9, (2E)-3-[4-(acetylamino)phenyl]-N-[1-(3-chlorobenzyl)-1H-imidazol-4-yl]prop-2-enamide] was tested, and the IC50 (HCT-116 cells [1]; Homo sapiens) was 0.22 µmol/L, the “inhibitory effect on the sphere-forming ability of cancer cells” value (shortened to “inhibitory effect”) (HCT-116 cells [1]) was “particularly potent inhibitory effect” and the IC50 (HT-29 cells) was 0.03 µmol/L. For the same compound, the IC50 (FaDu cells; Homo sapiens) was 0.03 µmol/L and the IC50 (HCT-116 cells [2]; Homo sapiens, HCT-116, 96 h) was 910 nM.

With `N#Cc1ccc(/C=C/C(=O)Nc2cn(Cc3cccc(Cl)c3)cn2)cc1` [Example 22] the IC50 (HCT-116 cells [1]; Homo sapiens) was 0.08 µmol/L, the “inhibitory effect” value (HCT-116 cells [1]) was “particularly potent inhibitory effect” and the IC50 (HT-29 cells) was < 0.01 µmol/L. The IC50 (FaDu cells; Homo sapiens) was 0.06 µmol/L, the IC50 (HCT-116 cells [2]; Homo sapiens, HCT-116, 96 h) was 640 nM and the “inhibitory effect” value (HCT-116 cells [2]) was “particularly potent inhibitory effect”.

With `COc1ccc(/C=C/C(=O)Nc2cn(Cc3cccc(Cl)c3)cn2)cc1O` [Example 23, (E)-N-(1-(3-Chlorobenzyl)-1H-imidazol-4-yl)-3-(3-hydroxy-4-methoxyphenyl)acrylamide] the IC50 (HCT-116 cells [1]; Homo sapiens) was 0.61 µmol/L, the IC50 (HT-29 cells) was 0.47 µmol/L and the IC50 (FaDu cells; Homo sapiens) was < 0.01 µmol/L. The IC50 (HCT-116 cells [2]; Homo sapiens, HCT-116, 96 h) was 370 nM and the “inhibitory effect” value (HCT-116 cells [2]) was “particularly potent inhibitory effect”.

For `COc1ccc(C(=O)Nc2cn(Cc3ccc(Cl)cc3)cn2)cc1OC` [Example 158], the IC50 (HCT-116 cells [1]) was 0.57 µmol/L, the IC50 (FaDu cells) was 0.5 µmol/L and the IC50 (HCT-116 cells [2]) was 4220 nM.

`COc1ccc(C(=O)Nc2cn(Cc3cc(F)cc(Cl)c3)cn2)cc1OC` [Example 159] was tested, and the IC50 (HCT-116 cells [1]) was 0.06 µmol/L, the “inhibitory effect” value (HCT-116 cells [1]) was “particularly potent inhibitory effect” and the IC50 (FaDu cells) was 0.07 µmol/L. It also gave an IC50 (HCT-116 cells [2]) of 610 nM.

`COc1ccc(C(=O)Nc2cn(Cc3ccc(F)c(Cl)c3)cn2)cc1OC` [Example 160] was tested, and the IC50 (HCT-116 cells [1]) was 0.07 µmol/L, the “inhibitory effect” value (HCT-116 cells [1]) was “particularly potent inhibitory effect” and the IC50 (FaDu cells) was 0.07 µmol/L. It also gave an IC50 (HCT-116 cells [2]) of 610 nM.

For `COc1ccc(C(=O)Nc2cn(Cc3ccc(F)c(C(F)(F)F)c3)cn2)cc1OC` [Example 161], the IC50 (HCT-116 cells [1]) was 0.04 µmol/L, the “inhibitory effect” value (HCT-116 cells [1]) was “particularly potent inhibitory effect” and the IC50 (FaDu cells) was < 0.01 µmol/L. It also gave an IC50 (HCT-116 cells [2]) of 410 nM.

In the case of `COc1ccc(C(=O)Nc2cn(Cc3cc(F)cc(C(F)(F)F)c3)cn2)cc1OC` [Example 162], the IC50 (HCT-116 cells [1]) is reported as 0.06 µmol/L, the “inhibitory effect” value (HCT-116 cells [1]) is reported as “particularly potent inhibitory effect” and the IC50 (FaDu cells) is reported as 0.06 µmol/L. The IC50 (HCT-116 cells [2]) was 510 nM.

Compound `O=C(Nc1cn(Cc2cc(F)c(F)c(F)c2)cn1)c1ccc(CO)cc1` [Example 175] has an IC50 (HCT-116 cells [1]) of 0.29 µmol/L, an IC50 (FaDu cells) of 0.22 µmol/L and an IC50 (HCT-116 cells [2]) of 770 nM.

With `Cc1cccc(C(=O)Nc2cn(Cc3cccc(Cl)c3)cn2)n1` [Example 279] the viability at 1 µM (HCT-116 cells [1]; Homo sapiens) was 87.4%, the viability at 1 µM (HT-29 cells) was 42.3% and the viability at 1 µM (FaDu cells; Homo sapiens) was 47.2%.

`O=C(Nc1cn(Cc2cccc(Cl)c2)cn1)c1cncc(Br)c1` [Example 283] gave a viability at 1 µM (HCT-116 cells [1]; Homo sapiens) of 75.6%, a viability at 1 µM (HT-29 cells) of 44.7% and a viability at 1 µM (FaDu cells; Homo sapiens) of 50%.

`COc1ccc(C(=O)Nc2cn(Cc3ccc(C(F)(F)F)cc3)cn2)cc1OC` [Example 287] was tested, and the “(100%-inhibition rate of cell proliferation) at 1 μmol/L, HCT-116” value (HCT-116 cells [1]) was 95.8%, the “(100%-inhibition rate of cell proliferation) at 1 μmol/L, HT-29” value (HT-29 cells) was 124% and the “(100%-inhibition rate of cell proliferation) at 1 μmol/L, FaDu” value (FaDu cells) was 53.0%.

For `COc1ccc(C(=O)Nc2cn(Cc3cccc(C)c3)cn2)cc1OC` [Example 291], the “(100%-inhibition rate of cell proliferation) at 1 μmol/L, HCT-116” value (HCT-116 cells [1]) was 70.8%, the “(100%-inhibition rate of cell proliferation) at 1 μmol/L, HT-29” value (HT-29 cells) was 37.1% and the “(100%-inhibition rate of cell proliferation) at 1 μmol/L, FaDu” value (FaDu cells) was 37.8%.

For `COc1ccc(C(=O)Nc2cn(Cc3ccc(C)c(Cl)c3)cn2)cc1OC` [Example 295], the “(100%-inhibition rate of cell proliferation) at 1 μmol/L, HCT-116” value (HCT-116 cells [1]) was 83.0%, the “(100%-inhibition rate of cell proliferation) at 1 μmol/L, HT-29” value (HT-29 cells) was 37.8% and the “(100%-inhibition rate of cell proliferation) at 1 μmol/L, FaDu” value (FaDu cells) was 31.8%.

`COc1ccc(C(=O)Nc2cn(Cc3cccc(Oc4ccccc4)c3)cn2)cc1OC` [Example 297] was tested, and the “(100%-inhibition rate of cell proliferation) at 1 μmol/L, HCT-116” value (HCT-116 cells [1]) was 56.6%, the “(100%-inhibition rate of cell proliferation) at 1 μmol/L, HT-29” value (HT-29 cells) was 33.7% and the “(100%-inhibition rate of cell proliferation) at 1 μmol/L, FaDu” value (FaDu cells) was 31.4%.
